Measured values from US20250176550A1, “HERBICIDE COMPOSITION OF URACIL COMPOUND CONTAINING CARBOXYLATE FRAGMENT AND THE USE THEREOF” (Jiangsu Flag Chemical Industry Co., Ltd., priority 2022, published 2025).

What was measured:
Test in all cases: Indoor virulence and combined effect, greenhouse pot test, post-emergence stem and leaf spray, fresh weight inhibition
Type in all cases: in vivo
veronica persica = test system: veronica persica
Protocol: (§1) The active ingredients A and B are respectively screened and an indoor combined effect of the composition on weeds was evaluated by an indoor test and a field test, to determine a combined effect of the composition on weeds.
(§2) Quantitative seeds of Poaceae weeds (echinochloa crusgalli, Digitaria sanguinalis, setaria viridis, Eleusine indica, avena fatua, alopecurus japonicus, alopecurus aequalis, Lolium multiflorum) and broadleaf weeds (eclipta prostrata, rorippa dubia, Abutilon theophrasti, conyza canadensis, veronica persica, myosoton aquaticum, polygonum lapathifolium, galium aparine var. tenerum, alisma plantago-aquatica, geranium carolinianum) were sown in paper cup containing nutrient soil with a diameter of 7 cm, covered with soil for 1 cm after sowing. After pressing and watering, they were cultured in a greenhouse according to a conventional method. Poaceae weeds grew to 3˜4 leaf stage, broad-leaved weeds grew to 4˜6 leaf stage, spraying treatment to both stem and leaf was performed; and pre-seedling soil spray treatment was performed 24 hours after sowing. Following an experimental design dosage, a WP-2000 walking spray tower (spindle speed 96 mm/r, spray height 200 mm, effective spray amplitude of nozzle 350 mm, nozzle flow rate 390 mL/min, nozzle walking speed 210 mm/s) was used for the spray treatment. The experiment was repeated three times. After being treated, a sample material is placed in an operation hall, and after the drug solution is naturally dried out, the sample material is placed in a greenhouse and managed according to the conventional method. A reaction of weeds to the drug agent is observed and recorded, and a regularly visual check of a control effect of the drug agent on weeds was performed after the treatment.
(§3) All of original drugs were using acetone as a solvent, being diluted with 0.1 wt % emulsifier of Tween-80 aqueous solution, and being diluted right before using.
(§4) When determining a ratio or content of the active ingredient A and the active ingredient B, it should be measured from characteristics of action of both agents and virulence thereof, as well as the main purpose of use of a formula shall also be considered in. In the present study, on a basis of previous pre-test, the dosages of the active ingredient A and the active ingredient B were set, when being used alone and mixed, as shown in the following table. Water containing no agent, but containing the same solvent and emulsifier was used as a blank control.
(§5) Repeat 4 times for each treatment, 3 pots per treatment each time and 30 weed seeds were sown for each pot.
(§6) Adopting an absolute number survey method, using a blade to cut the whole seedling of surviving weed along soil surface, and weighting the fresh weight of the weed with an analytical balance. For weeds that had died, counting the fresh weight as zero.
(§7) Survey period and frequency: 21 days after the treatment, total 1 investigation.
(§8) The theoretical fresh weight inhibition rate (E0-Expected Efficacy=[…]) of each treatment combination was calculated by Gowing method, and then compared with the measured inhibition rate (E-Observed Efficacy) to evaluate the combined effect type of both on weeds. When E-E0 value was greater than 10%, it was counted as a synergistic effect, less than −10%, it was counted as an antagonistic effect, and between −10%˜10%, it was counted as an additive effect. According to a plurality of factors including an actual control efficacy, a herbicide characteristic, a formula balance and other factors to determine the best ratio. In the formula, X is the fresh weight inhibition rate of the ingredient A at a dosage of P; Y is the fresh weight inhibition rate of the active ingredient B at a dosage of Q.
(§9) The statistical results are shown in Table 1 to Table 44 below, except for those marked clearly as “pre-emergence treatment”, all others are “post-emergence treatment”. […]

eclipta prostrata = test system: eclipta prostrata
Protocol: as §1, §2, §3, §4, §5, §6, §7, §8, §9

lolium multiflorum = test system: lolium multiflorum
Protocol: as §1, §2, §3, §4, §5, §6, §7, §8, §9

echinochloa crusgalli = test system: echinochloa crusgalli
Protocol: as §1
as §2, with “Following an experimental design dosage, a WP-2000 walking spray tower (spindle speed 96 mm/r, spray height 200 mm, effective spray amplitude of nozzle 350 mm, nozzle flow rate 390 mL/min, nozzle walking speed 210 mm/s) was used for the spray treatment.” left out, “method.” for “method. A reaction of weeds to the drug agent is observed and recorded, and a regularly visual check of a control effect of the drug agent on weeds was performed after the treatment.”
as §3, §4, §5, §6, §7
When E-E0 value was greater than 10%, it was counted as a synergistic effect, less than −10%, it was counted as an antagonistic effect, and between −10%˜10%, it was counted as an additive effect. […] In the formula, X is the fresh weight inhibition rate of the ingredient A at a dosage of P; Y is the fresh weight inhibition rate of the active ingredient B at a dosage of Q.

CCCCC(CC)COC(=O)COc1ccc(Cl)cc1Cl [2,4-D-etexyl]
Fresh weight inhibition rate %, B single agent (veronica persica; Table 23, B 195 g a.i./ha): 30.42% | Fresh weight inhibition rate %, B single agent (veronica persica; Table 23, B 275 g a.i./ha): 40.62% | Fresh weight inhibition rate %, B single agent (veronica persica; Table 23, B 350 g a.i./ha): 50.28%

Cc1cc(Cl)ccc1OCC(=O)[O-].[Na+] [MCPA-sodium]
Fresh weight inhibition rate %, B single agent (eclipta prostrata; Table 43, B 80 g a.i./ha): 37.73% | Fresh weight inhibition rate %, B single agent (eclipta prostrata; Table 43, B 160 g a.i./ha): 45.00%

CC(C)N1C(=O)c2ccccc2NS1(=O)=O [bentazone-sodium]
inhibition at 300 g/ha (veronica persica; Veronica persica, 504 h, Table 9, 300 g a.i./ha, post-emergence, 21 days after treatment, read-out: Fresh weight inhibition rate %, B single agent): 30.5% | inhibition at 450 g/ha (veronica persica; Veronica persica, 504 h, Table 9, 450 g a.i./ha, post-emergence, 21 days after treatment, read-out: Fresh weight inhibition rate %, B single agent): 41.9% | inhibition at 525 g/ha (veronica persica; Veronica persica, 504 h, Table 9, 525 g a.i./ha, post-emergence, 21 days after treatment, read-out: Fresh weight inhibition rate %, B single agent): 53.3%

C=CCOC(=O)C(C)(C)OC(=O)c1cc(-n2c(=O)cc(C(F)(F)F)n(C)c2=O)ccc1Cl [butafenacil]
Fresh weight inhibition rate %, B single agent (lolium multiflorum; Table 34, B 7.5 g a.i./ha): 29.47% | Fresh weight inhibition rate %, B single agent (lolium multiflorum; Table 34, B 12.5 g a.i./ha): 36.55% | Fresh weight inhibition rate %, B single agent (lolium multiflorum; Table 34, B 20 g a.i./ha): 43.60% | Fresh weight inhibition rate %, B single agent (lolium multiflorum; Table 34, B 30 g a.i./ha): 53.40%

CC1(C)CON(Cc2ccccc2Cl)C1=O [clomazone]
inhibition at 12.5 g/ha (echinochloa crusgalli; Echinochloa crus-galli, 504 h, Table 17, 12.5 g a.i./ha, post-emergence, 21 days after treatment, read-out: Fresh weight inhibition rate %, B single agent): 8.42% | inhibition at 20 g/ha (echinochloa crusgalli; Echinochloa crus-galli, 504 h, Table 17, 20 g a.i./ha, post-emergence, 21 days after treatment, read-out: Fresh weight inhibition rate %, B single agent): 7.51% | inhibition at 45 g/ha (echinochloa crusgalli; Echinochloa crus-galli, 504 h, Table 17, 45 g a.i./ha, post-emergence, 21 days after treatment, read-out: Fresh weight inhibition rate %, B single agent): 10.9%

N#Cc1cnn(-c2nn3c(c2Cl)CCCC3)c1NCC1CC1 [cyclopyranil]
Fresh weight inhibition rate %, B single agent (echinochloa crusgalli; Table 37, B 12.5 g a.i./ha): 24.73% | Fresh weight inhibition rate %, B single agent (echinochloa crusgalli; Table 37, B 20 g a.i./ha): 25.46% | Fresh weight inhibition rate %, B single agent (echinochloa crusgalli; Table 37, B 30 g a.i./ha): 31.50% | Fresh weight inhibition rate %, B single agent (echinochloa crusgalli; Table 37, B 40 g a.i./ha): 39.05%

CNC.COc1c(Cl)ccc(Cl)c1C(=O)O [dicamba-dimethylammonium]
Fresh weight inhibition rate %, B single agent (veronica persica; Table 24, B 40 g a.i./ha): 11.68% | Fresh weight inhibition rate %, B single agent (veronica persica; Table 24, B 60 g a.i./ha): 25.89% | Fresh weight inhibition rate %, B single agent (veronica persica; Table 24, B 80 g a.i./ha): 37.82% | Fresh weight inhibition rate %, B single agent (veronica persica; Table 24, B 100 g a.i./ha): 38.58%

c1cc[n+]2c(c1)-c1cccc[n+]1CC2 [diquat]
Fresh weight inhibition rate %, B single agent (lolium multiflorum; Table 27, B 300 g a.i./ha): 31.27% | Fresh weight inhibition rate %, B single agent (lolium multiflorum; Table 27, B 400 g a.i./ha): 36.44% | Fresh weight inhibition rate %, B single agent (lolium multiflorum; Table 27, B 495 g a.i./ha): 41.37%

C#CCN1C(=O)COc2cc(F)c(N3C(=O)C4=C(CCCC4)C3=O)cc21 [flumioxazin]
Fresh weight inhibition rate %, B single agent (eclipta prostrata; Table 11, B 8 g a.i./ha): 24.97% | Fresh weight inhibition rate %, B single agent (eclipta prostrata; Table 11, B 16 g a.i./ha): 39.68% | Fresh weight inhibition rate %, B single agent (eclipta prostrata; Table 11, B 20 g a.i./ha): 45.24% | Fresh weight inhibition rate %, B single agent (eclipta prostrata; Table 11, B 30 g a.i./ha): 54.24%

CCOC(=O)COC(=O)c1cc(Oc2ccc(C(F)(F)F)cc2Cl)ccc1[N+](=O)[O-] [fluoroglycofen-ethyl]
Fresh weight inhibition rate %, B single agent (eclipta prostrata; Table 12, B 8 g a.i./ha): 11.99% | Fresh weight inhibition rate %, B single agent (eclipta prostrata; Table 12, B 16 g a.i./ha): 27.44% | Fresh weight inhibition rate %, B single agent (eclipta prostrata; Table 12, B 20 g a.i./ha): 42.03%

CCCCCCC(C)OC(=O)COc1nc(F)c(Cl)c(N)c1Cl (stereo not drawn) [fluroxypyr-meptyl]
Fresh weight inhibition rate %, B single agent (eclipta prostrata; Table 42, B 32 g a.i./ha): 30.91% | Fresh weight inhibition rate %, B single agent (eclipta prostrata; Table 42, B 40 g a.i./ha): 34.55% | Fresh weight inhibition rate %, B single agent (eclipta prostrata; Table 42, B 60 g a.i./ha): 39.55% | Fresh weight inhibition rate %, B single agent (eclipta prostrata; Table 42, B 80 g a.i./ha): 73.18%

CP(=O)(O)CC[C@H](N)C(=O)O.N [glufosinate-P-ammonium]
Fresh weight inhibition rate %, B single agent (lolium multiflorum; Table 20, B 200 g a.i./ha): 8.61% | Fresh weight inhibition rate %, B single agent (lolium multiflorum; Table 20, B 300 g a.i./ha): 74.40% | Fresh weight inhibition rate %, B single agent (lolium multiflorum; Table 20, B 350 g a.i./ha): 78.23% | Fresh weight inhibition rate %, B single agent (lolium multiflorum; Table 20, B 400 g a.i./ha): 83.04%

CP(=O)(O)CCC(N)C(=O)O (stereo not drawn) [glufosinate-ammonium]
Fresh weight inhibition rate %, B single agent (lolium multiflorum; Table 19, B 120 g a.i./ha): 2.63% | Fresh weight inhibition rate %, B single agent (lolium multiflorum; Table 19, B 210 g a.i./ha): 12.20% | Fresh weight inhibition rate %, B single agent (lolium multiflorum; Table 19, B 300 g a.i./ha): 27.99% | Fresh weight inhibition rate %, B single agent (lolium multiflorum; Table 19, B 400 g a.i./ha): 54.64%

COCc1cnc(C2=NC(C)(C(C)C)C(=O)N2)c(C(=O)[O-])c1.[Na+] (stereo not drawn) [imazamox-sodium]
Fresh weight inhibition rate %, B single agent (echinochloa crusgalli; Table 3, 15 g a.i./ha, post-emergence, 21 days after treatment): 2.52% | Fresh weight inhibition rate %, B single agent (echinochloa crusgalli; Table 3, 20 g a.i./ha, post-emergence, 21 days after treatment): 13.41%

COc1cnc(OC)n2nc(NS(=O)(=O)c3c(OCC(F)F)cccc3C(F)(F)F)nc12 [penoxsulam]
inhibition at 5 g/ha (echinochloa crusgalli; Echinochloa crus-galli, 504 h, Table 2, 5 g a.i./ha, post-emergence, 21 days after treatment, read-out: Fresh weight inhibition rate %, B single agent): 7.31% | inhibition at 10 g/ha (echinochloa crusgalli; Echinochloa crus-galli, 504 h, Table 2, 10 g a.i./ha, post-emergence, 21 days after treatment, read-out: Fresh weight inhibition rate %, B single agent): 18.3%

Nc1c(Cl)c(Cl)nc(C(=O)O)c1Cl [picloram-potassium, picloram]
Fresh weight inhibition rate %, B single agent (veronica persica; Table 26, B 450 g a.i./ha): 42.89% | Fresh weight inhibition rate %, B single agent (veronica persica; Table 26, B 525 g a.i./ha): 47.46% | Fresh weight inhibition rate %, B single agent (veronica persica; Table 26, B 600 g a.i./ha): 50.25% | Fresh weight inhibition rate %, B single agent (veronica persica; Table 26, B 600 g a.i./ha (row 2 + 600)): 50.25%

COC(=O)CCNC(=O)C(C)Sc1cc(-n2c(=O)cc(C(F)(F)F)n(C)c2=O)c(F)cc1Cl (stereo not drawn) [tiafenacil]
Fresh weight inhibition rate %, B single agent (lolium multiflorum; Table 38, B 10 g a.i./ha): 8.27% | Fresh weight inhibition rate %, B single agent (lolium multiflorum; Table 38, B 15 g a.i./ha): 15.26% | Fresh weight inhibition rate %, B single agent (lolium multiflorum; Table 38, B 20 g a.i./ha): 22.42%

broclozone
Fresh weight inhibition rate %, B single agent (echinochloa crusgalli; Table 44, B 50 g a.i./ha): 5.86% | Fresh weight inhibition rate %, B single agent (echinochloa crusgalli; Table 44, B 80 g a.i./ha): 16.30% | Fresh weight inhibition rate %, B single agent (echinochloa crusgalli; Table 44, B 120 g a.i./ha): 33.00% | Fresh weight inhibition rate %, B single agent (echinochloa crusgalli; Table 44, B 150 g a.i./ha): 44.95%
